Test results: PubChem BioAssay (NCI)
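Growth conditions: 96-well plates. Treatment: test compound, 48 hours, 5 concentrations. Analysis: linear interpolation between bracketing concentrations; unreached endpoints set to highest concentration. Abbreviation: GI50, concentration required for 50% inhibition of growth. Definition used: TGI = concentration required for complete inhibition of growth.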

Key:
Assay in all cases: NCI anticancer screen, dose series, 48 h
[1] = system: CAKI-1 renal
[2] = system: DLD-1 colon
[3] = system: HL-60(TB) leukemia
[4] = system: MOLT-4 leukemia
[5] = system: SK-MEL-28 melanoma
[6] = system: TK-10 renal
[7] = system: HCC-2998 colon
[8] = system: KM20L2 colon
[9] = system: RPMI-8226 leukemia
[10] = system: MDA-MB-231 breast

| SMILES | TGI [1] [µM] | TGI [2] [µM] | TGI [3] [µM] | TGI [4] [µM] | TGI [5] [µM] | TGI [6] [µM] | TGI [7] [µM] | TGI [8] [µM] | TGI [9] [µM] | GI50 [2] [µM] | GI50 [3] [µM] | GI50 [8] [µM] | GI50 [4] [µM] | GI50 [9] [µM] | GI50 [5] [µM] | GI50 [6] [µM] | GI50 [1] [µM] | GI50 [7] [µM] | GI50 [10] [µM] | TGI [10] [µM] |
| --- | --- | --- | --- | --- | --- | --- | --- | --- | --- | --- | --- | --- | --- | --- | --- | --- | --- | --- | --- | --- |
| CC(C)(C)OC(=O)N1C2CCCC23O[C@@H]1c1cc2c(cc1C3=O)OCO2 (stereo not given in full) | 87.1 | > 100 | 38.3 | > 100 | > 100 | > 100 | – | – | – | – | – | – | – | – | – | – | – | – | – | – |
| NC(=S)N/N=C1\CCCC\C1=C/c1ccccc1 | – | > 100 | 4.74 | 84.4 | > 100 | > 100 | > 100 | > 100 | 38.2 | – | – | – | – | – | – | – | – | – | – | – |
| CCOc1ccc(N=Cc2c3ccccc3nc3ccccc23)cc1 | > 100 | > 100 | 77.2 | > 100 | > 100 | > 100 | > 100 | > 100 | > 100 | – | – | – | – | – | – | – | – | – | – | – |
| CCCCCCCCCCCCCCCCCCC1=C(O)C(=O)C=C(OC)C1=O | > 100 | > 100 | 80.8 | > 100 | > 100 | > 100 | > 100 | > 100 | – | – | – | – | – | – | – | – | – | – | – | – |
| NCCN.O=C([O-])[O-].O=C([O-])[O-].[Co+3].[K+] | – | > 100 | > 100 | > 100 | > 100 | > 100 | – | > 100 | > 100 | > 100 | > 100 | > 100 | > 100 | > 100 | > 100 | > 100 | – | – | – | – |
| CC(=O)[CH-]C(=O)c1ccccc1.CC(=O)[CH-]C(=O)c1ccccc1.O=S(=O)([O-])c1cc([O-])c2c([O-])cc(S(=O)(=O)[O-])cc2c1.[Na+].[Ti+4] | > 100 | – | > 100 | > 100 | > 100 | – | > 100 | > 100 | > 100 | – | > 100 | > 100 | 34.3 | > 100 | > 100 | – | > 100 | > 100 | – | – |
| CSc1ccc2c(cc1=O)[C@@H](NC(=O)c1cc(O)c(O)c(O)c1)CCc1cc(O)c(O)c(O)c1-2 | – | 55.7 | 40.7 | 45.6 | 94.8 | > 100 | > 100 | > 100 | – | – | – | – | – | – | – | – | – | – | – | – |
| C[P+](C)(C)c1ccccc1 | > 100 | > 100 | > 100 | > 100 | > 100 | > 100 | > 100 | > 100 | > 100 | – | – | – | – | – | – | – | – | – | – | – |
| O=C1CC2CCN(C(=O)c3ccccc3)CC2CCN1 (stereo not given) | – | > 100 | > 100 | > 100 | > 100 | > 100 | > 100 | > 100 | > 100 | – | – | – | – | – | – | – | – | – | – | – |
| C=CCC1(C)CCCCC1(O)CS(=O)c1ccccc1 (stereo not given) | > 100 | > 100 | > 100 | > 100 | > 100 | > 100 | > 100 | > 100 | > 100 | – | – | – | – | – | – | – | – | – | – | – |
| C1=NC(N(Cc2ccccc2)Cc2ccccc2)N(Cc2ccccc2)N1 (stereo not given) | 46.1 | 67.9 | > 100 | > 100 | 37.2 | 86.4 | 36.4 | 30.8 | 32.9 | – | – | – | – | – | – | – | – | – | – | – |
| Nc1ccc(C2=N/C(=C\c3cccc(N)c3)C(=O)O2)cc1 | > 100 | > 100 | > 100 | > 100 | > 100 | > 100 | > 100 | > 100 | – | – | – | – | – | – | – | – | – | – | – | – |
| Cc1ccc(N2C(=O)N(c3ccc(C)cc3)C3(SC=NN3C)C2=O)cc1 (stereo not given) | > 100 | > 100 | > 100 | > 100 | > 100 | > 100 | > 100 | > 100 | > 100 | – | – | – | – | – | – | – | – | – | – | – |
| CCOC(=O)C(C)(c1c(C)[nH]c2ccccc12)c1c(C)[nH]c2ccccc12 | 45.4 | 75.9 | 37.6 | 42.9 | 30.5 | 45.6 | 45.2 | 31 | 46.2 | – | – | – | – | – | – | – | – | – | – | – |
| C[Si](C)(C)CN1C(=O)c2ccccc2C1(O)c1ccccc1 (stereo not given) | > 91.6 | > 100 | > 100 | > 100 | > 100 | > 100 | > 100 | > 100 | – | – | – | – | – | – | – | – | – | – | – | – |
| CC1CCC(C(C)(C)c2ccccc2)C(=O)C1 (stereo not given) | > 100 | > 100 | > 100 | > 100 | – | > 100 | > 100 | > 100 | > 100 | – | – | – | – | – | – | – | – | – | – | – |
| O=C1c2ccc3c4ccccc4n(-c4ccccc4)c3c2C(=O)N1c1ccc(Cl)cc1 | > 100 | > 100 | > 100 | > 100 | – | > 100 | > 100 | > 100 | – | – | – | – | – | – | – | – | – | – | – | – |
| COc1ccc(/C=N/N=C(\N)NO)c(OC)c1C | 46.4 | > 100 | – | > 100 | > 100 | – | 22.1 | – | > 100 | – | – | – | – | – | – | – | – | – | – | – |
| CCOC(=O)C1=C(N)Oc2c(sc3c(C)cccc23)C1c1ccc(F)cc1 (stereo not given) | 14.9 | – | 4.62 | 17.5 | 22.1 | 29.5 | 8.78 | – | 5.38 | – | 0.374 | – | 1.88 | 0.489 | 8.71 | 13.2 | 0.413 | 1.72 | 2.37 | 16 |
| O=C(NNc1cnccn1)c1nc2cc(F)ccc2n2cccc12 | > 100 | – | 2.82 | > 100 | > 100 | > 100 | > 100 | – | > 100 | – | 0.346 | – | 0.34 | 0.518 | 1.08 | 0.647 | 0.422 | 2.88 | 0.597 | > 100 |
| COC(=O)[C@]12CC[C@@H](C)[C@H](C)[C@@H]1C1=CC[C@@H]3[C@@]4(C)C(C=O)=C[C@@](C)(COC(=O)c5ccco5)[C@@H]4[C@H](O)C[C@@]3(C)[C@]1(C)CC2 | > 100 | – | 5.84 | 7.5 | 2.64 | 9.32 | 3.71 | – | 6.7 | – | 2.33 | – | 2.29 | 1.76 | 0.0918 | 2.04 | 2.86 | 1.92 | 2.49 | 5.83 |
| COc1ccc(-c2nn(-c3cccc(Cl)c3)cc2-c2nc(N)[nH]c(=O)c2C#N)cc1 | 15.3 | – | 14.2 | 39.8 | 27.9 | 53.9 | 24.9 | – | 55.5 | – | 3.96 | – | 4.8 | 5.63 | 4.98 | 13.5 | 2.52 | 5.87 | 3.39 | 53.3 |
